Data reported in article PMC11211886 (Frontiers in Pharmacology, 2024).
“And” between values parts separate entries of the source, which are not always exact repeats. Equal values may be shown once. Read-outs that look alike come from different tables or passages of the source.

What was measured:
CYP2C8 = biological target: T1, CYP2C8 (Homo sapiens, UniProt P10632); test: Time-dependent CYP inhibition in HLM, CYP2C8; type: in vitro ADME; details: 10 μM, 30 min pre-incubation with NADPH
T1 construct: tissue Life Technologies (Durham, NC, USA); host or cells: human liver microsomes
T1 sequence (P10632 1-490): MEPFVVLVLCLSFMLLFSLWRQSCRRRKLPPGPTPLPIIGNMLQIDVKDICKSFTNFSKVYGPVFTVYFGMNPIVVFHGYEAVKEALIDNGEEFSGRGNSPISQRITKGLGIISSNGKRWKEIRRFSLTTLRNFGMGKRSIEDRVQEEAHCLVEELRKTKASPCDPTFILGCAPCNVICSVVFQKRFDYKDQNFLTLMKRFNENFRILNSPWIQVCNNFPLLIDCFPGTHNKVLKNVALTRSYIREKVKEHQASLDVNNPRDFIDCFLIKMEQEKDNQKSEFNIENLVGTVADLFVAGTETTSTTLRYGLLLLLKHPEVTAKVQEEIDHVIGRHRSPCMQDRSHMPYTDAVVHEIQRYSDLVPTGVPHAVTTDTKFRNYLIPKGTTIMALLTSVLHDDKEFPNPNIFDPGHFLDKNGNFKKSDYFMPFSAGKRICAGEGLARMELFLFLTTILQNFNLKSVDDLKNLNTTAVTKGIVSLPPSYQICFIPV
Experimental: (§1) The procedure of time-dependent CYP inhibition was similar to that used for CYP reversible inhibition, as mentioned above, except that a pre-incubation step was added. […] Another appropriate volume of the NADPH-regenerating system and probe substrate were added to initiate the CYP isoform enzyme activity test step. For this step, the incubation period was 10 min, except for CYP2B6, CYP2C8, and CYP3A4/5 (probe substrate: midazolam), which was 3 min to make sure the reaction was under initial linear rates. After incubation for the designated time periods at 37°C, the ice-cold acetonitrile containing IS was added to quench the reaction. […] (Ainactivator/[…] represents the enzyme activity remaining due to the inhibition by the diluted inactivator in the enzyme activity test step, and (Ainactivator/[…] represents the remaining enzyme activity due to pre-incubation loss plus inhibition by the diluted inactivator in the enzyme activity test step.

plasma proteins = test: Plasma protein binding (RED), rat plasma; type: in vitro ADME
Experimental: The plate containing plasma and buffer was equilibrated for 6 h in a 37°C water shaking bath. After incubation, aliquots of buffer and plasma (20 µL) on both sides were collected and precipitated using organic solvents. […] The post-dialysis recovery of amdizalisib was also measured.

CYP2D6 = biological target: T2, CYP2D6 (Homo sapiens, UniProt P10635); test: Reversible CYP inhibition in HLM, CYP2D6 (dextromethorphan); type: in vitro ADME; details: for enzyme activity remaining: CYP2D6, HLM
T2 construct: tissue Life Technologies (Durham, NC, USA); host or cells: human liver microsomes
Experimental: The markers used to determine the activities of CYP isoforms were phenacetin O-deethylation for CYP1A2 (probe substrate: 50 µM phenacetin), bupropion hydroxylation for CYP2B6 (probe substrate: 70 µM bupropion), paclitaxel 6α-hydroxylation for CYP2C8 (probe substrate: 10 µM paclitaxel), diclofenac 4′-hydroxylation for CYP2C9 (probe substrate: 5 µM diclofenac), S-(+)-mephenytoin 4′-hydroxylation for CYP2C19 (probe substrate: 20 µM S-(+)-mephenytoin), dextromethorphan O-demethylation for CYP2D6 (probe substrate: 6 µM dextromethorphan), chlorzoxazone 6′-hydroxylation for CYP2E1 (probe substrate: 70 µM chlorzoxazone), and testosterone 6β-hydroxylation and midazolam 1′-hydroxylation for CYP3A4/5 (probe substrate: 45 µM testosterone and 5 µM midazolam). […] Alpha-naphthoflavone (0.04 µM), 2-phenyl-2-(1-piperidinyl)propane (5 µM), quercetin (1 µM), sulfaphenazole (0.5 µM), ticlopidine (4 µM), quinidine (0.2 µM), diethyldithiocarbamate (20 µM), and ketoconazole (0.05 µM) were used as positive inhibitors of CYP1A2, 2B6, 2C8, 2C9, 2C19, 2D6, 2E1, and 3A4, respectively. The vehicle control was prepared in the same composition as inhibitor solutions but free of inhibitors. The concentrations of probe substrates were close to Km values that were determined in-house and within the range recommended by the FDA ([Huang et al., 2007]). Reaction mixtures were incubated at 37°C for 5, 20, or 30 min, depending on the probe substrates of CYP isoforms. The reactions were terminated by adding cold acetonitrile containing IS, and the terminated incubation mixtures were centrifuged at 3,000 g for 10 min before LC-MS/MS analysis.

CYP2B6 = details: male, human, 48 h
Experimental: […] […] […] Enzyme activity for each CYP isoform was reported as a fold change over vehicle control and the percent of positive control (detailed calculation in Supplementary 1.1). Hepatocytes were harvested with a lysis buffer from RNeasy 96 Kit (Qiagen Inc., Germantown, MD, USA) to isolate RNA, which was analyzed by real-time quantitative polymerase chain reaction (RT-PCR). […] Emax (the maximal observed induction) and EC50 (the concentration that supports half-maximal induction) were estimated by non-linear regression of fold increase in CYP mRNA expression versus concentration plots.
The fold of vehicle control and the percent of positive control were calculated with the formulas below:
Fold of vehicle control = CYPs activity of test compound (or positive control) treated sample / CYPs activity of vehicle control treated sample
% of positive control = [(fold change in treated sample)-1] / [(fold change in positive control)-1] × 100
Based on the enzyme activity, a minimum of 2-fold increase compared to vehicle control for the positive control and ≥40% of the positive control for the test article was considered as the cutoff for a positive signal in in vitro induction assay.

[1] = cited from earlier work
CYP2C9 = biological target: T3, CYP2C9 (Homo sapiens, UniProt P11712); test: Time-dependent CYP inhibition in HLM, CYP2C9; type: in vitro ADME; details: 10 μM, 30 min pre-incubation with NADPH
T3 construct: tissue Life Technologies (Durham, NC, USA); host or cells: human liver microsomes
Experimental: as §1

CYP2C19 = biological target: T4, CYP2C19 (Homo sapiens, UniProt P33261); test: Time-dependent CYP inhibition in HLM, CYP2C19; type: in vitro ADME; details: 10 μM, 30 min pre-incubation with NADPH
T4 construct: tissue Life Technologies (Durham, NC, USA); host or cells: human liver microsomes
Experimental: as §1

[2] = Single-dose PK in cynomolgus monkeys (IV/PO); type: in vivo, cynomolgus monkey
[3] = both sexes, cynomolgus monkey, in vivo, iv, 1 mg/kg
[4] = both sexes, cynomolgus monkey, in vivo, po, 5 mg/kg

T2 sequence (P10635 whole entry): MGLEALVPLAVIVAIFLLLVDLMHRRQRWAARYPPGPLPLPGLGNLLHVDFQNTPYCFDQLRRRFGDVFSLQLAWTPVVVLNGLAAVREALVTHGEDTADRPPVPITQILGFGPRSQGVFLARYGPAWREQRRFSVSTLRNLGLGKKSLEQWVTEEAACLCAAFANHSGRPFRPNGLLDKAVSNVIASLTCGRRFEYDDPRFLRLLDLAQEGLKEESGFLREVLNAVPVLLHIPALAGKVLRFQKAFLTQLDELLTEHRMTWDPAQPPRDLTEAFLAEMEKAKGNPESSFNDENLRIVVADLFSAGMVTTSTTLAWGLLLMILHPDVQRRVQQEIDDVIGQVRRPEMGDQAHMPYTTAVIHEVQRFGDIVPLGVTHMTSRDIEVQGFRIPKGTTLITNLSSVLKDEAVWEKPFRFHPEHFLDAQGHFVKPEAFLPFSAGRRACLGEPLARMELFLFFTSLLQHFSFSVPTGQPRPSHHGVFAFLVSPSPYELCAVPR
T3 sequence (P11712 whole entry): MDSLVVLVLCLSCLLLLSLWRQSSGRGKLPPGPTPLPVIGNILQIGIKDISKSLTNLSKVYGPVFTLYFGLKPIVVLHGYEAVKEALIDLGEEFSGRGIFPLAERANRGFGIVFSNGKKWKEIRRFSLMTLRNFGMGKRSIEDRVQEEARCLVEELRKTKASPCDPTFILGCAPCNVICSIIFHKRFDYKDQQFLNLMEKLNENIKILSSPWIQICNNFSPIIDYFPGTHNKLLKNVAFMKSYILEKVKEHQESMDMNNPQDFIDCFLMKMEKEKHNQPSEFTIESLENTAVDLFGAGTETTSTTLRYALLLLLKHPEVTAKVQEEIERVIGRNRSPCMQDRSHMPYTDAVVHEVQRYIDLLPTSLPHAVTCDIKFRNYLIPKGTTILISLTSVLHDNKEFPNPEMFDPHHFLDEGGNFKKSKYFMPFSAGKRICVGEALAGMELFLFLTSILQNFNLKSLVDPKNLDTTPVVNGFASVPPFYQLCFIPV
T4 sequence (P33261 whole entry): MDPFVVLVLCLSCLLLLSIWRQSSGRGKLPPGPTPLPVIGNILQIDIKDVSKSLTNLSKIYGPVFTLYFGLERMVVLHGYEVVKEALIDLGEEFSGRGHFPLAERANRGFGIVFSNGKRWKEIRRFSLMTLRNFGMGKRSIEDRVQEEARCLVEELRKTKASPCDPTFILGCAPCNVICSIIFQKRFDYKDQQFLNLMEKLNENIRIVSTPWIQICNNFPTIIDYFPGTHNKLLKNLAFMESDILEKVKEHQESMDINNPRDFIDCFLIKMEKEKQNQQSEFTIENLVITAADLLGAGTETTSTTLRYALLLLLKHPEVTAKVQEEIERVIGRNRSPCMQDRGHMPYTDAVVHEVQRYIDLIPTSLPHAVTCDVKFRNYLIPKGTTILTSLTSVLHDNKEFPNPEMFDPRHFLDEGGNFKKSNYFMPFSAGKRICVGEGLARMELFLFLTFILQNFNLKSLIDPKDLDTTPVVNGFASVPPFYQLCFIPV

Compound: C[C@H](Nc1ncnc(N)c1C#N)c1cc2ncc(Cl)n2nc1-c1ccccc1 [Amdizalisib]
- activity loss of CYP2C8 (CYP2C8): less than 10%
- Binding fraction to plasma proteins, Rat (plasma proteins; 0.1 µM): 87.2 ± 1.72%
- Binding fraction to plasma proteins, Rat (plasma proteins; 1 µM): 90.2 ± 0.65%
- Binding fraction to plasma proteins, Rat (plasma proteins; 20 µM): 89.9 ± 0.37%
- enzyme activity remaining (CYP2D6; 0.08 μM): 103%
- enzyme activity remaining (CYP2D6; 0.4 μM): 103% and 107%
- enzyme activity remaining (CYP2D6; 2 μM): 104% and 98.0%
- enzyme activity remaining (CYP2D6; 10 μM): 98.0% and 98.6%
- enzyme activity remaining (CYP2D6; 50 μM): 80.0% and 84.5%
- IC50 (CYP2D6; HLM, reversible, without pre-incubation): > 50 µM
- Enzyme activity Percent of PC (%) (CYP2B6; 1 µM): 2.60%
- Enzyme activity Percent of PC (%) (CYP2B6; 3 µM): 3.00%
- Enzyme activity Percent of PC (%) (CYP2B6; 10 µM): 3.10%
- Enzyme activity Percent of PC (%) (CYP2B6; 20 µM): -11.1%
- Enzyme activity Percent of PC (%) (CYP2B6; 30 µM): -13.3%
- maximal unbound plasma concentration at steady state ([1]; 30 mg QD in humans): ~52.1 nM
- observed human value (Vss/F) ([1]; human): 2.33 L/kg
- reported human CLss/F ([1]; human): 3.25 mL/min/kg
- activity loss of CYP2C9 (CYP2C9): 14.6%
- activity loss of CYP2C19 (CYP2C19): less than 10%
- FPO ([2]; Cynomolgus monkey, fasted, PO 5 mg/kg, 5 mg/kg): 30.8 ± 8.48%
- AUC(0-inf) [2, 3]: 1520 ng·h/mL
- AUC(0-t) [2, 3]: 1490 ng·h/mL
- MRT [2, 3]: 2.2 ± 0.551 h
- clearance [2, 3]: 11.3 ± 2.36 mL/min/kg
- AUC(0-inf) [2, 4]: 2390 ng·h/mL
- AUC(0-t) [2, 4]: 2330 ng·h/mL
- Cmax [2, 4]: 480 ± 147 ng/mL
- MRT [2, 4]: 4.9 ± 1 h
- Tmax [2, 4]: 2 ± 0.632 h
- half-life [2, 4]: 3.1 ± 0.89 h
- Vd ([2]; both sexes, in vivo, Cynomolgus monkey, fasted, IV 1 mg/kg, read-out: Vss): 1.45 ± 0.207 L/kg
- half-life ([2]; both sexes, in vivo, Cynomolgus monkey, fasted, IV 1 mg/kg, read-out: t1/2 (converted)): 2.82 ± 0.469 h
- CL as % of the hepatic blood flow ([2]; both, cynomolgus monkey, in vivo, iv): 25.7%
- FPO ([2]; both, cynomolgus monkey, in vivo, po, 5 mg/kg): 30.8%
